Assay results from PubChem BioAssay AID330 (DTP/NCI, 2004).
“And” between values parts separate entries of the source, which are not always exact repeats. Identical values can stand only once. Toxic doses and inconclusive results are not listed. Rule for the calls: active = survival T/C of 150% or more; inactive = T/C below 125% in these data.

System: P388 leukemia ip, CD2F1 mice, survival T/C
Test: NCI In Vivo Anticancer Drug Screen. Data for tumor model P388 Leukemia (intraperitoneal) in CD2F1 (CDF1) mice
Settings: endpoint: median survival time, higher = longer survival
Outline: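 Mice carrying the transplanted tumor received test compound or vehicle. Survival was recorded in each group, and the value is the treated-group measurement divided by that of the vehicle-treated control group.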

[1] = dose: 25.0 mg/kg/injection, schedule: Q01DX009 (ip), vehicle: saline
[2] = dose: 50.0 mg/kg/injection, schedule: Q01DX009 (ip), vehicle: saline with Tween-80
[3] = dose: 50.0 mg/kg/injection, schedule: Q01DX009 (ip), vehicle: saline
[4] = dose: 100.0 mg/kg/injection, schedule: Q01DX009 (ip), vehicle: saline with Tween-80
[5] = dose: 100.0 mg/kg/injection, schedule: Q01DX009 (ip), vehicle: saline
[6] = dose: 200.0 mg/kg/injection, schedule: Q01DX009 (ip), vehicle: saline with Tween-80
[7] = dose: 200.0 mg/kg/injection, schedule: Q01DX009 (ip), vehicle: saline
[8] = dose: 50.0 mg/kg/injection, schedule: Q01DX009 (ip), vehicle: Klucel (hydroxypropylcellulose) (HPC)
[9] = dose: 100.0 mg/kg/injection, schedule: Q01DX009 (ip), vehicle: Klucel (hydroxypropylcellulose) (HPC)
[10] = dose: 200.0 mg/kg/injection, schedule: Q01DX009 (ip), vehicle: Klucel (hydroxypropylcellulose) (HPC)
[11] = dose: 50.0 mg/kg/injection, schedule: Q01DX005 (ip), vehicle: saline with Tween-80
[12] = dose: 50.0 mg/kg/injection, schedule: Q01DX005 (ip), vehicle: Klucel (hydroxypropylcellulose) (HPC)
[13] = dose: 100.0 mg/kg/injection, schedule: Q01DX005 (ip), vehicle: Klucel (hydroxypropylcellulose) (HPC)
[14] = dose: 200.0 mg/kg/injection, schedule: Q01DX005 (ip), vehicle: Klucel (hydroxypropylcellulose) (HPC)
[15] = dose: 12.5 mg/kg/injection, schedule: Q01DX005 (ip), vehicle: saline with Tween-80
[16] = dose: 25.0 mg/kg/injection, schedule: Q01DX005 (ip), vehicle: saline with Tween-80
[17] = dose: 50.0 mg/kg/injection, schedule: Q04DX003 (ip), vehicle: saline with Tween-80
[18] = dose: 100.0 mg/kg/injection, schedule: Q04DX003 (ip), vehicle: saline with Tween-80

Measured: T/C

Cn1cnc([N+](=O)[O-])c1Sc1ncccn1
inactive: dose: 25.0 mg/kg/injection, schedule: Q01DX009 (ip), vehicle: saline with Tween-80 106 % of control | [1] 98 % of control | [2] 98 % of control | [3] 104 % of control and 108 % of control | [4] 100 % of control | [5] 108 % of control and 112 % of control | [6] 106 % of control | [7] 114 % of control and 122 % of control

COc1cccc2c1C(=O)c1c(O)c3c(c(O)c1C2=O)CC(O)(c1cscn1)CC3OC1CC(N)C(O)C(C)O1 (stereo not given)
inactive: dose: 25.0 mg/kg/injection, schedule: Q04DX003 (ip), vehicle: water 118 % of control | dose: 100.0 mg/kg/injection, schedule: Q04DX003 (ip), vehicle: water 124 % of control
active: dose: 50.0 mg/kg/injection, schedule: Q04DX003 (ip), vehicle: water 157 % of control

CC(C)(C)C(=O)Oc1ccc[nH]c1=O
inactive: [1] 100 % of control and 110 % of control | [3] 106 % of control and 116 % of control | [5] 100 % of control and 116 % of control | [7] 121 % of control and 94 % of control | dose: 400.0 mg/kg/injection, schedule: Q01DX009 (ip), vehicle: saline 106 % of control and 109 % of control

CC1CC2C(=S)NC(=O)C(c3ccccc3)=C2O1 (stereo not given)
inactive: [8] 107 % of control | [9] 103 % of control | [10] 100 % of control

COC1(c2ccc(C)cc2)OC12CCN(C)CC2 (stereo not given)
inactive: [11] 106 % of control | dose: 100.0 mg/kg/injection, schedule: Q01DX005 (ip), vehicle: saline with Tween-80 95 % of control | dose: 200.0 mg/kg/injection, schedule: Q01DX005 (ip), vehicle: saline with Tween-80 106 % of control

O=C(C(=O)N1CCC(O)CC1)c1c[nH]c2ccccc12
inactive: [8] 98 % of control | [9] 101 % of control | [10] 100 % of control

[N-]=[N+]=CC(=O)NCC(=O)NN=C(CO)CO
active: dose: 180.0 mg/kg/injection, schedule: Q01DX009 (ip), vehicle: water 154 % of control | dose: 270.0 mg/kg/injection, schedule: Q01DX009 (ip), vehicle: water 172 % of control | dose: 400.0 mg/kg/injection, schedule: Q01DX009 (ip), vehicle: water 172 % of control | dose: 600.0 mg/kg/injection, schedule: Q01DX009 (ip), vehicle: water 181 % of control

CN(C)NC(=O)c1ccc(C(=O)NN(C)C)cc1
inactive: [8] 108 % of control | [9] 108 % of control | [10] 113 % of control

C1CCC(N2CCOCC2)CC1
inactive: dose: 12.5 mg/kg/injection, schedule: Q01DX009 (ip), vehicle: saline 99 % of control | [1] 117 % of control | [3] 100 % of control and 101 % of control

O=[N+]([O-])c1ccc(OCC#CCOc2ccc([N+](=O)[O-])c(C(F)(F)F)c2)cc1C(F)(F)F
inactive: dose: 50.0 mg/kg/injection, schedule: Q01DX009 (ip), vehicle: other 105 % of control | dose: 100.0 mg/kg/injection, schedule: Q01DX009 (ip), vehicle: other 104 % of control | dose: 200.0 mg/kg/injection, schedule: Q01DX009 (ip), vehicle: other 102 % of control

COc1cccc(N)c1N
inactive: [1] 99 % of control | dose: 25.0 mg/kg/injection, schedule: Q01DX009 (ip), vehicle: suspension in saline 103 % of control | [3] 100 % of control | dose: 50.0 mg/kg/injection, schedule: Q01DX009 (ip), vehicle: suspension in saline 106 % of control | [5] 106 % of control | dose: 100.0 mg/kg/injection, schedule: Q01DX009 (ip), vehicle: suspension in saline 107 % of control | [7] 96 % of control | dose: 200.0 mg/kg/injection, schedule: Q01DX009 (ip), vehicle: suspension in saline 91 % of control

CC(=O)NS(=O)(=O)c1ccc(NN=Nc2ccccc2Cl)cc1
inactive: [12] 95 % of control | [13] 94 % of control | [14] 97 % of control

COc1ccc(N2C(N)=NC(N)=NC2(C)C)cc1
inactive: dose: 6.25 mg/kg/injection, schedule: Q01DX005 (ip), vehicle: saline with Tween-80 93 % of control | [15] 102 % of control | [16] 107 % of control

ClCC(CCl)(CCl)CCl
inactive: [17] 105 % of control | [18] 98 % of control

Cc1cc[n+](-c2c3c(nc4ccccc24)-c2ccccc2C(C)(C)C3)cc1
inactive: dose: 12.5 mg/kg/injection, schedule: Q01DX005 (ip), vehicle: saline 100 % of control | dose: 25.0 mg/kg/injection, schedule: Q01DX005 (ip), vehicle: saline 91 % of control | dose: 50.0 mg/kg/injection, schedule: Q01DX005 (ip), vehicle: saline 94 % of control | dose: 100.0 mg/kg/injection, schedule: Q01DX005 (ip), vehicle: saline 106 % of control

O=C1c2[nH]cnc2N(Cc2ccc(Cl)cc2)C2=NCCN12
inactive: [12] 102 % of control | [13] 100 % of control

COc1cccc2c1C(=O)c1ccccc1-2
inactive: [12] 102 % of control | [13] 102 % of control | [14] 91 % of control

O=C(Nc1ccc(Cl)cc1)Nc1nnc(/C=C/c2ccccc2)o1
inactive: dose: 60.0 mg/kg/injection, schedule: Q01DX005 (ip), vehicle: saline with Tween-80 96 % of control | dose: 120.0 mg/kg/injection, schedule: Q01DX005 (ip), vehicle: saline with Tween-80 96 % of control

Cc1c(C2=C(Br)C(=O)N(C)C2=O)c(=O)n(C)c(=O)n1C
inactive: dose: 60.0 mg/kg/injection, schedule: Q01DX005 (ip), vehicle: Klucel (hydroxypropylcellulose) (HPC) 111 % of control | dose: 120.0 mg/kg/injection, schedule: Q01DX005 (ip), vehicle: Klucel (hydroxypropylcellulose) (HPC) 118 % of control

COc1cc(/C=C/c2ccc3ccccc3n2)cc(OC)c1OC
inactive: [17] 100 % of control | [4] 86 % of control | [18] 100 % of control | [6] 90 % of control | dose: 200.0 mg/kg/injection, schedule: Q04DX003 (ip), vehicle: saline with Tween-80 100 % of control

COC1=CC(=O)C2CC=CC(CC(=O)O)C2(C)C1=O (stereo not given)
inactive: [12] 108 % of control | [13] 103 % of control

COc1cc(OC)c(OC)cc1/C=C\c1nccc2ccccc12
inactive: [2] 99 % of control | [4] 96 % of control | [6] 96 % of control

Cc1ccc(S(=O)(=O)/C(=N\O)c2ccc(Cl)cc2)cc1
inactive: [12] 96 % of control | [13] 107 % of control | [14] 95 % of control

CC/C(=N/NS(=O)(=O)c1ccc(C)cc1)C(=O)O
inactive: dose: 25.0 mg/kg/injection, schedule: Q01DX005 (ip), vehicle: Klucel (hydroxypropylcellulose) (HPC) 90 % of control | [12] 92 % of control | [13] 92 % of control | [14] 91 % of control | dose: 400.0 mg/kg/injection, schedule: Q01DX005 (ip), vehicle: Klucel (hydroxypropylcellulose) (HPC) 88 % of control

CCCN(CCC)c1nnc([N+](=O)[O-])s1
inactive: dose: 50.0 mg/kg/injection, schedule: Q01DX001 (ip), vehicle: other 104 % of control | dose: 100.0 mg/kg/injection, schedule: Q01DX001 (ip), vehicle: other 100 % of control | dose: 200.0 mg/kg/injection, schedule: Q01DX001 (ip), vehicle: other 104 % of control

COC(=O)C1(C)CCCC2(C)c3cc(OC)ccc3C3(CC12)SCCS3 (stereo not given)
inactive: dose: 10.0 mg/kg/injection, schedule: Q01DX009 (ip), vehicle: saline with Tween-80 95 % of control | dose: 20.0 mg/kg/injection, schedule: Q01DX009 (ip), vehicle: saline with Tween-80 99 % of control | dose: 40.0 mg/kg/injection, schedule: Q01DX009 (ip), vehicle: saline with Tween-80 103 % of control

O=C1C2OC2C(=O)C2C3C=CC(C3)C12 (stereo not given)
inactive: dose: 75.0 mg/kg/injection, schedule: Q04DX002 (ip), vehicle: saline with Tween-80 99 % of control | dose: 150.0 mg/kg/injection, schedule: Q04DX002 (ip), vehicle: saline with Tween-80 96 % of control | dose: 300.0 mg/kg/injection, schedule: Q04DX002 (ip), vehicle: saline with Tween-80 95 % of control

CC(=O)OCn1cc2c3c(cccc31)C1CC(C)CN(C)C1C2 (stereo not given)
inactive: [15] 98 % of control | [16] 106 % of control | [11] 100 % of control

O=C(NCc1ccncc1)Nc1ccc(Cc2ccc(NC(=O)NCc3ccncc3)cc2)cc1
inactive: [8] 105 % of control | [9] 102 % of control | [10] 103 % of control
